The conditions of assay [1]: orally administered three times a day; cited from earlier work.
Assay [2] deals with TMPRSS2-induced production of S2′. The format is cell-based. Particulars: acceptor cells ACE2 and TMPRSS2, 120 μM.
Assay [3] deals with S-mediated cell-to-cell fusion. It is filed as cell-based. Conditions: acceptor cells ACE2 plus TMPRSS2, camostat 120 μM.

Where a name gives a salt, the structure may show the parent alone.

For `CN(C)C(=O)COC(=O)Cc1ccc(OC(=O)c2ccc(NC(=N)N)cc2)cc1` [camostat mesylate], the “Effect on COVID-19 symptoms” value in assay [1] is “did not ameliorate COVID-19 symptoms”.
On to `CN(C)C(=O)COC(=O)Cc1ccc(OC(=O)c2ccc(NC(=N)N)cc2)cc1` [camostat], for which the “Effect on enhanced TMPRSS2-induced production of S2′ with WT S” value in assay [2] is given as “eliminated”. For the same molecule, in assay [3], the “Effect on TMPRSS2-enhanced fusion with μAS1/S2” value is listed as “largely attenuated” and the “Effect on TMPRSS2-reduced fusion with WT S” value is listed as “completely restored”.

The values are drawn from publication PMC9044946 (Journal of Virology, 2022).
